{"source": "patent US4499019A", "about": "“N-(1-allyl-2-pyrrolidylmethyl)-2,3-dimethoxy-5-sulfamoylbenzamide and derivatives thereof and method for treating hot flushes associated with natural or surgical menopause” (Societe D'Etudes Scientifiques et Industrielles de l'Ile de …, priority 1976, dated 1985)", "key": {"Wistar rat": {"tested_on": "Wistar rat", "assay": "Acute toxicity in the Wistar rat (oral administration)", "assay_type": "in vivo", "from_the_text": "(§1) The acute toxicity of the compound was studied in the Swiss mouse with both parenteral and oral administration and in the Wistar rat with oral administration.\nHowever, the LD0 is approximately 1.5 g/kg."}, "[1]": {"tested_on": "psycho neuro-vegetative syndrome of the natural or surgical menopause", "assay": "Clinical results in patients with psycho neuro-vegetative syndrome of the menopause (243 patients)", "assay_type": "in vivo, human"}, "[2]": {"tested_on": "psycho neuro-vegetative symptoms of the menopause", "assay": "Double-blind study against placebo on the psycho neuro-vegetative symptoms of the menopause", "assay_type": "in vivo, human", "conditions": "forty observations, double blinding against placebo", "from_the_text": "The action of the compound on the psycho neuro-vegetative symptoms of the menopause has been studied with double blinding against placebo."}, "female rat": {"tested_on": "female rat", "assay": "Effects on ovary, vaginal cytology and mammary glands in the female rat", "assay_type": "in vivo", "from_the_text": "(§2) Experiments have been carried out on both the female rat and the female hamster. The changes produced by the compound at the level of the ovary and of vaginal cytology make it possible to predict a point of impact located at the level of the hypothalamo hypophyso-ovarian axis."}, "patients": {"tested_on": "patients", "conditions": "human, in vivo"}, "[3]": {"assay": "Acute toxicity in the Swiss mouse (parenteral and oral administration)", "conditions": "in vivo", "from_the_text": "as §1"}, "male rats": {"tested_on": "male rats", "conditions": "rat, in vivo, sc", "method": "The compound was administered subcutaneously to male rats. The criterion for the cataleptic state was the immobility of the animal for 30 seconds with its front limbs apart and arranged carefully on cubes of wood 4 centimeters high, thus placing the animal in an unaccustomed and uncomfortable position."}, "[4]": {"tested_on": "psycho neuro-vegetative syndrome of the natural or surgical menopause", "method": "A patient, suffering considerable neuro-vegetative symptoms in the natural menopause mainly with attacks of sweating and hot flushes (30-40 a day), was treated orally with N-(1'-allyl-2'-pyrrolidylmethyl)-2,3-dimethoxy-5-sulfamoylbenzamide at a dosage of 100 mg per day. […] The following is a comparison of the patient's neuro-vegetative symptoms before treatment with treatment after eight days:\nThe patient was treated orally with N-(1'-allyl-2'-pyrrolidylmethyl)-2,3-dimethoxy-5-sulfamoylbenzamide at a dosage rate of 100 mg per day.\nA patient had considerable neuro-vegetative symptoms in the natural menopause with mainly hot flushes and headaches.\nThe patient was treated orally with N-(1'-allyl-2'-pyrrolidylmethyl)-2,3-dimethoxy-5-sulfamoylbenzamide at a dosage rate of 100 mg per day for twenty days.\nThe patient was treated again in the same manner as previously at a dosage rate of 100 mg per day for twenty days.\nA patient suffered neuro-vegetative symptoms in the surgical menopause with mainly hot flushes which set in following a hysterectomy for a fibroid tumor."}, "female hamster": {"tested_on": "female hamster", "assay": "Effects on ovary and mammary glands in the female hamster", "assay_type": "in vivo", "from_the_text": "as §2"}, "[5]": {"assay": "Semichronic toxicity in the Wistar rat, oral, four weeks", "conditions": "in vivo, doses 0.5, 1 and 2 g/kg per 24 hours, read-out: relatively or completely non-toxic up to (dose)", "description": "In the rat the compound was administered in doses of 0.5, 1 and 2 g/kg per 24 hours."}, "[6]": {"conditions": "female rat, subcutaneous injections, 3.5 and 10 mg/kg"}, "[7]": {"conditions": "Example 18, 100 mg per day oral, after eight days, before: Severe"}, "[8]": {"conditions": "Example 19, 100 mg per day oral, eight days, before: Severe"}, "[9]": {"conditions": "Example 20, 100 mg per day oral for twenty days, before: Severe"}, "[10]": {"conditions": "Example 21, 100 mg per day oral for twenty days, before: Severe"}, "[11]": {"conditions": "Example 21, 100 mg per day oral for twenty days, before: Yes"}, "[12]": {"conditions": "Example 22, 100 mg per day oral for twenty days, before: Medium"}, "[13]": {"conditions": "Example 22, 100 mg per day oral for twenty days, before: Yes"}, "[14]": {"conditions": "Example 23, 100 mg per day oral for twenty days, before: Severe"}, "[15]": {"conditions": "Example 23, 100 mg per day oral for twenty days, before: Yes"}, "[16]": {"conditions": "female hamster, subcutaneous injections, 3.5 and 10 mg/kg"}}, "note": "Read-outs that look alike come from different tables or passages of the source.", "data": [{"smiles": "C=CCN1CCCC1CNC(=O)c1cc(S(N)(=O)=O)cc(OC)c1OC", "note": "(stereo not drawn) [N-(1'-allyl-2'-pyrrolidylmethyl)-2,3-dimethoxy-5-sulfamoylbenzamide]", "values": [{"measurement": "LD50", "setting": "Wistar rat; Wistar rat, oral", "value": "toxicity of the compound was so low that the LD50 could not be determined"}, {"measurement": "LD0", "setting": "Wistar rat; rat, in vivo, po", "value": "approximately 1.5 g/kg"}, {"measurement": "LD100", "setting": "Wistar rat; rat, in vivo, po", "value": "> 4000", "unit": "mg/kg"}, {"measurement": "Vulvar Irritation: Percentage Very Good & Good", "setting": "[1]; 32 cases", "value": 84, "unit": "%"}, {"measurement": "Vulvar Irritation: Results, Average & Zero (number of cases)", "setting": "[1]; 32 cases", "value": 5}, {"measurement": "Vulvar Irritation: Results, Very Good & Good (number of cases)", "setting": "[1]; 32 cases", "value": 27}, {"measurement": "Hot Flushes: Percentage Very Good & Good", "setting": "[1]; 211 cases", "value": 73.9, "unit": "%"}, {"measurement": "Hot Flushes: Results, Average & Zero (number of cases)", "setting": "[1]; 211 cases", "value": 55}, {"measurement": "Hot Flushes: Results, Very Good & Good (number of cases)", "setting": "[1]; 211 cases", "value": 156}, {"measurement": "effectiveness excellent or good in hot flushes", "setting": "[1]; cases of hot flushes", "value": "74 % of the cases"}, {"measurement": "vulvar irritation eliminated", "setting": "[1]; cases of vulvar irritation", "value": "84 % of the cases"}, {"measurement": "effective in psycho neuro-vegetative syndrome of the menopause (hot flashes, vulvar pruritus, vaginal diseases)", "setting": "[1]; patients, menopause", "value": "84 % of the cases treated"}, {"measurement": "patient's mental state", "setting": "[1]; patients, natural or surgical menopause", "value": "parallel improvement in the patient's mental state"}, {"measurement": "difference between compound and placebo", "setting": "[2]", "value": "very significant difference"}, {"measurement": "change to the uterus", "setting": "female rat; female rat", "value": "little change to the uterus"}, {"measurement": "vaginal cycle", "setting": "female rat; female rat", "value": "blocked in dioestrus"}, {"measurement": "vaginal epithelium", "setting": "female rat; female rat", "value": "primsmatic, indicating the predominance of progesterone over estrogens"}, {"measurement": "corpora lutea of the ovary", "setting": "female rat; [6]", "value": "caused the corpora lutea of the ovary to be maintained"}, {"measurement": "progesterone secretion by the maintained corpora lutea", "setting": "female rat; [6]", "value": "secreted increased quantities of progesterone"}, {"measurement": "susceptibility, rat versus hamster", "setting": "female rat; mammary gland development", "value": "The rat appeared to be more susceptible than the hamster"}, {"measurement": "development of the mammary glands", "setting": "female rat; rat", "value": "development of the mammary glands was noted"}, {"measurement": "secretory activity of the mammary glands", "setting": "female rat; rat, at the highest doses", "value": "signs of secretory activity"}, {"measurement": "clinical and biological tolerance", "setting": "patients", "value": "excellent"}, {"measurement": "side effects including mammary congestion, galactorrhea, drowsiness, etc. (cases)", "setting": "patients", "value": "less than 8 % of the cases"}, {"measurement": "acceptability of the treatment", "setting": "patients; po", "value": "perfect acceptability"}, {"measurement": "general tolerance", "setting": "patients; po", "value": "excellent general tolerance"}, {"measurement": "premature interruption of treatment, aversion or troublesome side effects", "setting": "patients; po", "value": "In no case was the course of treatment interrupted prematurely"}, {"measurement": "LD50", "setting": "[3]; ip", "value": 320, "unit": "mg/kg"}, {"measurement": "LD50", "setting": "[3]; iv", "value": "124 to 129", "unit": "mg/kg"}, {"measurement": "LD50", "setting": "[3]; po", "value": 1300, "unit": "mg/kg"}, {"measurement": "LD50", "setting": "[3]; sc", "value": "465 to 518", "unit": "mg/kg"}, {"measurement": "cataleptic action", "setting": "male rats", "value": "virtually no cataleptic action"}, {"measurement": "animals made cataleptic", "setting": "male rats; 200 mg/kg", "value": 30, "unit": "%"}, {"measurement": "results of the treatment", "setting": "[4]; 100 mg per day oral, first treatment, Examples 19, 20, 22", "value": "excellent"}, {"measurement": "Headaches, After Treatment", "setting": "[4]; Example 18, 100 mg per day oral, after eight days, before: Medium", "value": "None"}, {"measurement": "Hot Flushes: Frequency, After Treatment", "setting": "[4]; [7]", "value": "None"}, {"measurement": "Hot Flushes: Intensity, After Treatment", "setting": "[4]; [7]", "value": "None"}, {"measurement": "Irritability, After Treatment", "setting": "[4]; [7]", "value": "Slight"}, {"measurement": "Anxiety, After Treatment", "setting": "[4]; Example 18, 100 mg per day oral, after eight days, before: Slight", "value": "None"}, {"measurement": "flashes and sweating attacks", "setting": "[4]; Example 18, 100 mg per day oral, after two days (before: hot flushes 30-40 a day)", "value": 8, "unit": "per day"}, {"measurement": "Anxiety, After Treatment", "setting": "[4]; Example 19, 100 mg per day oral, eight days, before: Medium", "value": "Slight"}, {"measurement": "Headaches, After Treatment", "setting": "[4]; [8]", "value": "Slight"}, {"measurement": "Hot Flushes: Frequency, After Treatment", "setting": "[4]; [8]", "value": "None"}, {"measurement": "Hot Flushes: Intensity, After Treatment", "setting": "[4]; [8]", "value": "None"}, {"measurement": "Irritability, After Treatment", "setting": "[4]; [8]", "value": "Slight"}, {"measurement": "Headaches, After Treatment", "setting": "[4]; Example 20, 100 mg per day oral for twenty days, before: Medium", "value": "None"}, {"measurement": "Hot Flushes: Frequency, After Treatment", "setting": "[4]; [9]", "value": "None"}, {"measurement": "Hot Flushes: Intensity, After Treatment", "setting": "[4]; [9]", "value": "None"}, {"measurement": "Irritability, After Treatment", "setting": "[4]; [9]", "value": "Slight"}, {"measurement": "Hot Flushes: Frequency, Twenty Days After Treatment", "setting": "[4]; [10]", "value": "None"}, {"measurement": "Hot Flushes: Intensity, Twenty Days After Treatment", "setting": "[4]; [10]", "value": "None"}, {"measurement": "Abdominal Meteorism, Twenty Days After Treatment", "setting": "[4]; [11]", "value": "No"}, {"measurement": "Anxiety, Twenty Days After Treatment", "setting": "[4]; [11]", "value": "No"}, {"measurement": "Hot Flushes: Frequency, Twenty Days After Treatment", "setting": "[4]; [12]", "value": "None"}, {"measurement": "Hot Flushes: Intensity, Twenty Days After Treatment", "setting": "[4]; [12]", "value": "None"}, {"measurement": "Anxiety, Twenty Days After Treatment", "setting": "[4]; [13]", "value": "No"}, {"measurement": "Irritability, Twenty Days After Treatment", "setting": "[4]; [13]", "value": "No"}, {"measurement": "reappearance of symptoms after end of second treatment", "setting": "[4]; Example 23, 100 mg per day oral for twenty days", "value": "appeared again five days after termination of the second treatment"}, {"measurement": "Hot Flushes: Frequency, Twenty Days After Treatment", "setting": "[4]; [14]", "value": "Slight"}, {"measurement": "Hot Flushes: Intensity, Twenty Days After Treatment", "setting": "[4]; [14]", "value": "Slight"}, {"measurement": "Anxiety, Twenty Days After Treatment", "setting": "[4]; [15]", "value": "No"}, {"measurement": "Depression, Twenty Days After Treatment", "setting": "[4]; [15]", "value": "No"}, {"measurement": "Irritability, Twenty Days After Treatment", "setting": "[4]; [15]", "value": "Yes"}, {"measurement": "Libido Change, Twenty Days After Treatment", "setting": "[4]; [15]", "value": "Yes"}, {"measurement": "corpora lutea of the ovary", "setting": "female hamster; [16]", "value": "caused the corpora lutea of the ovary to be maintained"}, {"measurement": "progesterone secretion by the maintained corpora lutea", "setting": "female hamster; [16]", "value": "secreted increased quantities of progesterone"}, {"measurement": "development of the mammary glands", "setting": "female hamster; hamster", "value": "development of the mammary glands was noted"}, {"measurement": "secretory activity of the mammary glands", "setting": "female hamster; hamster, at the highest doses", "value": "signs of secretory activity"}, {"measurement": "NOAEL at 672 h", "setting": "[5]", "value": 1000, "unit": "mg/kg/day"}]}]}
